Consider eight compounds from US20040198789A1, “Lercanidipine/ARB/diuretic therapeutic combinations” (Recordati Ireland Limited, priority 2003, published 2004).

The target of one series is T1, AT1 receptor (Homo sapiens, UniProt P30556).
T1 sequence (P30556 1-359): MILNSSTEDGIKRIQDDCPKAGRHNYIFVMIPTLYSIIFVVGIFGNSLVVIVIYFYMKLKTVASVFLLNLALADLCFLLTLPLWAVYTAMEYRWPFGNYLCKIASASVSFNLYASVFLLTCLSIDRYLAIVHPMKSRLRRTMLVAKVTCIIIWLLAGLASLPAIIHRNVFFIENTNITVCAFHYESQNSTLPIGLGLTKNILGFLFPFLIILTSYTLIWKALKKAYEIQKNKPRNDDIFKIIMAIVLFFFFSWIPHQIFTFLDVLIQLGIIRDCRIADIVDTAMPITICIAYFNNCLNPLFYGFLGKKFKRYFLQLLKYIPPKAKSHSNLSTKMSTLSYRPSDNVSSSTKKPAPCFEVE
The note with it: cited from earlier work.

For series [1] the following is noted: cited from earlier work; for time of peak serum/plasma concentration: following oral administration; for terminal half-life: in vivo.
The target in another series is ACE (Homo sapiens, UniProt P12821). The conditions noted are these: cited from earlier work.
The subject of series [2] is reperfusion-induced hypertension in uninephrectomized anesthetized rats. As to the kind of experiment: Model of acute angiotensin-mediated renal hypertension in anesthetized rats (SBP, DBP, HR). It is filed as in vivo, rat. Here is the method: Male Sprague-Dawley rats, weighing 250-300 g, were anaesthetized with pentobarbital sodium (35 mg/kg, i.p.) and placed on a thermic blanket. The temperature was maintained at 37° C. with a thermoregulator via a rectal probe. The animals were tracheotomized to facilitate spontaneous breathing. A polyethylene catheter was placed in the left jugular vein to allow for infusion of pentobarbital sodium to maintain anesthesia. The left femoral vein and artery were cannulated with polyethylene catheters to allow drugs administration and to monitor blood pressure, respectively.
Animals then underwent a left nephrectomy by excising the left kidney via a flank incision. The right kidney and renal vein, artery and ureter were then exposed via a right retroperitoneal incision, under a dissecting microscope. Silk threads were placed around both vessels and ureter. The cavity was then covered with Vaseline oil.
After 30-60 minutes of basal recordings of arterial blood pressure and heart rate the threads around the renal vessels and ureter were tied close to the renal hilum to induce complete renal ischemia of the right kidney. After 2 hours of ischemia, the threads were removed to allow renal reperfusion and urine output.
For irbesartan experiments and comparisons, control (vehicle) or drug (irbesartan (100 μg/kg), lercanidipine (7.5 μg/kg), or both lercanidipine (7.5 μg/kg) and irbesartan (100 μg/kg)) were administered intravenously at 5 min after reperfusion was begun.
Results were expressed as mean values ±S.E. (in the tables) and in percent change observed.
To evaluate the effects of drugs administration on blood pressure and heart rate within each group, two-way ANOVA and Dunnet's test were used (“within treatment”). To evaluate the statistical differences among the treatment groups, data are analyzed using a three-way ANOVA (analysis of variance) with repeated measures on factor time and pre-planned multiple comparisons. The analysis was performed using, for each treatment, delta values (log transformation). […] (“between treatments”).

Series [3] has the same test system. Described as above. It is filed as in vivo, rat. This is another data set of the same source.
Where [4] appears, read: between treatments, three-way ANOVA on delta values, lercanidipine 7.5 μg/kg, irbesartan 100 μg/kg i.v.
[5] abbreviates: irbesartan 100 μg/kg i.v., n=6, time 0 min, basal, pre-drug.
Setting [6] is: irbesartan 100 μg/kg i.v., n=6, time 120 min, end of ischemia, pre-drug.
The mark [7] stands for this setting: irbesartan 100 μg/kg i.v., n=6, time 130 min, 5 min after drug.
The mark [8] stands for this setting: irbesartan 100 μg/kg i.v., n=6, time 135 min, 10 min after drug.
Setting [9] is: irbesartan 100 μg/kg i.v., n=6, time 150 min, 25 min after drug.
Setting [10] is: irbesartan 100 μg/kg i.v., n=6, time 165 min, 40 min after drug.
Where [11] appears, read: irbesartan 100 μg/kg i.v., n=6, time 180 min, 55 min after drug.
Where [12] appears, read: irbesartan 100 μg/kg i.v., n=6, time […], 5 min reperfusion, pre-drug.
Where [13] appears, read: valsartan 30 μg/kg i.v., n=7, time 0 min, basal, pre-drug.
Where [14] appears, read: valsartan 30 μg/kg i.v., n=7, time 120 min, end of ischemia, pre-drug.
Setting [15] is: valsartan 30 μg/kg i.v., n=7, time 130 min, 5 min after drug.
Setting [16] is: valsartan 30 μg/kg i.v., n=7, time 135 min, 10 min after drug.
Setting [17] is: valsartan 30 μg/kg i.v., n=7, time 150 min, 25 min after drug.
[18] abbreviates: valsartan 30 μg/kg i.v., n=7, time 165 min, 40 min after drug.
Where [19] appears, read: valsartan 30 μg/kg i.v., n=7, time 180 min, 55 min after drug.
[20] abbreviates: valsartan 30 μg/kg i.v., n=7, time […], 5 min reperfusion, pre-drug.
The mark [21] stands for this setting: between treatments, three-way ANOVA on delta values, lercanidipine 10 μg/kg, valsartan 30 μg/kg i.v.

Sequence of ACE (P12821 30-1306, species assumed): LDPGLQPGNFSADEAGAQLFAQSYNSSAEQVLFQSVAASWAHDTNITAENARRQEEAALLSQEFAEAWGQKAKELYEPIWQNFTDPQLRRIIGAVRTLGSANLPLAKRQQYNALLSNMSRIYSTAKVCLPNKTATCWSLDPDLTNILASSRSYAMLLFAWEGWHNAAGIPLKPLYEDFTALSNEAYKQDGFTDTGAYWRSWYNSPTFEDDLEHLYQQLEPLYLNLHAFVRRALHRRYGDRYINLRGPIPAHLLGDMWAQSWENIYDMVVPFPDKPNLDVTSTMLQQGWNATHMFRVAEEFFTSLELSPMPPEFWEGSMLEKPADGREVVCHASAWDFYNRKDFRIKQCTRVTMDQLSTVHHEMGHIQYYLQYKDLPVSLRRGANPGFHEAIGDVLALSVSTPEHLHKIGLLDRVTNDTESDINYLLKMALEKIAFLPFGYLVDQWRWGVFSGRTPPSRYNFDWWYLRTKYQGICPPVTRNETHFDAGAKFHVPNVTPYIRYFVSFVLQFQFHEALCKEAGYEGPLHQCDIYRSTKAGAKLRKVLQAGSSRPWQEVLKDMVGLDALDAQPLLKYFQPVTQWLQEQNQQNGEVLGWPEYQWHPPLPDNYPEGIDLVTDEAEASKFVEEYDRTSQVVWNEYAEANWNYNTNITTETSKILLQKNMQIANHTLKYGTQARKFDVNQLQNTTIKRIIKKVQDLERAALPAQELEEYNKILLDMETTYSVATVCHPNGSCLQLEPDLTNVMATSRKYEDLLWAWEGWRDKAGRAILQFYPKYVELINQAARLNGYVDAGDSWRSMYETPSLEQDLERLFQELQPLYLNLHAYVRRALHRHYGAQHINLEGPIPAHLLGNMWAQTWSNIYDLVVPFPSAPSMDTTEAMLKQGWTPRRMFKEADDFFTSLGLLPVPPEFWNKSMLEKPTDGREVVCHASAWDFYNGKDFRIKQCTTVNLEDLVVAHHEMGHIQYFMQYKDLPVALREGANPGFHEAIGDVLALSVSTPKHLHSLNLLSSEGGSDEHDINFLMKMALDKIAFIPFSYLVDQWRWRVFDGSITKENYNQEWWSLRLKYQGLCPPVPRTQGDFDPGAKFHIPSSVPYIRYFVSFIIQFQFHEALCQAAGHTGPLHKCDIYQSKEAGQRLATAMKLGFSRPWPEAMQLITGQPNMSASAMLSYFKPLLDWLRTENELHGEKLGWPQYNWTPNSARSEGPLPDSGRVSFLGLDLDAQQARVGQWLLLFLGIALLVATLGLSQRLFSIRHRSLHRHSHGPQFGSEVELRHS

For the compound `CCOc1nc2cccc(C(=O)O)c2n1Cc1ccc(-c2ccccc2-c2nnn[nH]2)cc1` [Candesartan free acid], the “greater affinity for the AT1 receptor than the AT2 receptor” value at AT1 receptor is given as < 10,000.

As to `CCCCc1ncc(/C=C(\Cc2cccs2)C(=O)O)n1Cc1ccc(C(=O)O)cc1` [Eprosartan, (E)-2-butyl-1 (p-carboxybenzyl)-α-2-thienylmethylimidazole-5-acrylic acid], at AT1 receptor, the “affinity for the AT1 receptor relative to the AT2 receptor” value was “about 1000 times”. The “time of peak serum/plasma concentration” value in series [1] is 1 to 2 h.

For the compound `CCCc1nc2c(C)cc(-c3nc4ccccc4n3C)cc2n1Cc1ccc(-c2ccccc2C(=O)O)cc1` [Telmisartan, 4′-[1,4′-dimethyl-2[-propyl[2,6′-bi-1H-benzimidazol]-1′-yl)methyl]-[1,1′-biphenyl]-2-carboxylic acid], the “time of peak serum/plasma concentration” value in series [1] was 0.5 to 1 h. Also, the “administered dose eliminated unchanged in feces via biliary excretion” value in series [1] (intravenous or oral administration) is reported as greater than 97%. Besides, the “inhibition of ACE” value at ACE was “does not inhibit”.

Consider `CCCCc1nc(Cl)c(C(=O)O)n1Cc1ccc(-c2ccccc2-c2nn[nH]n2)cc1` [active carboxylic acid metabolite], for which, in series [1], the “time of peak serum/plasma concentration” value was 3 to 4 h and the terminal half-life is 6 to 9 h.

In the case of `CCCCC1=NC2(CCCC2)C(=O)N1Cc1ccc(-c2ccccc2-c2nnn[nH]2)cc1` [irbesartan, 2-butyl-3-[[2′-(1H-tetrazol-5-yl)[1,1′-biphenyl]-4-yl]methyl]-1,3-diazaspiro[4.4]non-1-en-4-one], the “greater affinity for AT1 receptor compared to AT2 receptor” value on AT1 receptor was “more than 8500 fold”. In addition, the “time of peak serum/plasma concentration” value in series [1] was 1.5 to 2 h. Besides, the “inhibition of ACE” value at ACE is “does not inhibit”. In addition, in series [2] (setting [4]), the “Diastolic blood pressure: general differences among groups: p vs Vehicle” value is on record as “p < 0.05”. Also, the “Heart rate differences among groups: p vs Vehicle” value in series [2] (setting [4]) is “ns”. Further, the “Systolic blood pressure differences among groups: p vs Vehicle” value in series [2] (setting [4]) is listed as “ns”. Further, the DBP in series [2] (setting [5]) is 63.8 ± 3.5 mmHg; in series [2] (setting [6]), 59.0 ± 2.0 mmHg; in series [2] (setting [7]) it was 86.3 ± 5.8 b mmHg; in series [2] (setting [8]), 90.0 ± 5.6 b mmHg; in series [2] (setting [9]), 91.7 ± 6.1 b mmHg; in series [2] (setting [10]), 85.7 ± 6.6 b mmHg. Besides, the DBP result in series [2] (setting [11]) is given as “b 79.3 ± 8.1 b mmHg”; in series [2] (setting [12]), 107.0 ± 4.8 mmHg. Moreover, the HR in series [2] (setting [5]) came to 373.3 ± 14.5 beats/min; in series [2] (setting [6]) it was 360.0 ± 13.4 beats/min; in series [2] (setting [7]), 341.7 ± 13.8 beats/min; in series [2] (setting [8]), 346.7 ± 13.6 beats/min; in series [2] (setting [9]) it was 361.7 ± 7.5 a beats/min; in series [2] (setting [10]) it was 363.3 ± 11.8 a beats/min. Besides, the values for the HR in series [2] (setting [11]) and in series [2] (setting [12]) were 375.0 ± 13.1 b beats/min and 336.7 ± 14.1 beats/min, respectively. For the same compound, the SBP is given as 113.3 ± 6.7 mmHg in series [2] (setting [5]); 112.0 ± 5.6 mmHg in series [2] (setting [6]); 134.3 ± 5.5 b mmHg in series [2] (setting [7]); 138.7 ± 5.3 b mmHg in series [2] (setting [8]); 139.0 ± 5.7 b mmHg in series [2] (setting [9]); 136.0 ± 7.6 b mmHg in series [2] (setting [10]). The SBP is recorded as 125.7 ± 8.3 mmHg in series [2] (setting [11]) and 153.7 ± 5.1 mmHg in series [2] (setting [12]). Further, the “effect on heart rate (in words)” value in series [2] (lercanidipine 7.5 μg/kg, irbesartan 100 μg/kg i.v., alone or together) is on record as “no statistically significant change in heart rate”. Further, the “effect on blood pressure (in words)” value in series [2] (lercanidipine 7.5 μg/kg, irbesartan 100 μg/kg i.v., alone or together, 5 min after reperfusion) was “statistically significant decrease in both systolic and diastolic blood pressure”.

Take `CCCCc1nc(Cl)c(CO)n1Cc1ccc(-c2ccccc2-c2nnn[nH]2)cc1.[K]` [losartan, 2-butyl-4-chloro-1-[p-(o-1H-tetrazol-5-ylphenyl)-benzyl]imidazole-5-methanol monopotassium salt]: in series [1], the “time of peak serum/plasma concentration” value is 1 h and the terminal half-life entry is recorded as “about 2 hours”. For the same compound, the “inhibition of ACE” value on ACE is listed as “does not inhibit”.

On to `CCCc1nc(C(C)(C)O)c(C(=O)O)n1Cc1ccc(-c2ccccc2-c2nnn[nH]2)cc1` [olmesartan, 4-(1-hydroxy-1-methylethyl)-2-propyl-1-[p-(o-1H-tetrazol-5-ylphenyl)benzyl]imidazole-5-carboxylic acid], for which the “cleared in the urine” value in series [1] (following oral administration of olmesartan) is given as 35 to 50%. Moreover, the “time of peak serum/plasma concentration” value in series [1] was 1 to 2 h. Besides, the “inhibition of ACE” value at ACE is recorded as “does not inhibit”.

As to `CCCCC(=O)N(Cc1ccc(-c2ccccc2-c2nnn[nH]2)cc1)[C@H](C(=O)O)C(C)C` [valsartan, N-(1-oxopentyl)-N-[[2′-(1H-tetrazol-5-yl)[1,1′-biphenyl]-4-yl]methyl]-L-valine], the “time of peak serum/plasma concentration” value in series [1] is 2 to 4 h. Also, the “inhibition of ACE” value on ACE is “does not inhibit”. Besides, the DBP in series [2] (setting [13]) was 66.7 ± 4.1 mmHg; in series [2] (setting [14]), 62.1 ± 4.4 mmHg; in series [2] (setting [15]), 90.4 ± 4.4 b mmHg; in series [2] (setting [16]) it was 87.1 ± 5.2 b mmHg; in series [2] (setting [17]), 81.4 ± 4.5 b mmHg; in series [2] (setting [18]) it was 79.7 ± 4.6 b mmHg. The DBP was 77.3 ± 4.7 b mmHg in series [2] (setting [19]) and 108.1 ± 3.8 mmHg in series [2] (setting [20]). Besides, the HR is reported as 372.9 ± 8.4 beats/min in series [2] (setting [13]); 366.4 ± 10.9 beats/min in series [2] (setting [14]); 372.1 ± 10.0 beats/min in series [2] (setting [15]); 381.4 ± 7.3 beats/min in series [2] (setting [16]); 382.1 ± 6.9 beats/min in series [2] (setting [17]); 375.7 ± 7.6 beats/min in series [2] (setting [18]). Besides, the figures for the HR in series [2] (setting [19]) and in series [2] (setting [20]) were 368.6 ± 6.7 beats/min and 362.1 ± 12.9 beats/min, respectively. Further, the SBP in series [2] (setting [13]) is 126.4 ± 5.5 mmHg; in series [2] (setting [14]) it was 120.1 ± 4.3 mmHg; in series [2] (setting [15]), 145.6 ± 1.7 mmHg; in series [2] (setting [16]) it was 143.4 ± 1.0 a mmHg; in series [2] (setting [17]), 136.7 ± 1.9 b mmHg; in series [2] (setting [18]), 135.6 ± 4.0 b mmHg. Further, the SBP in series [2] (setting [19]) was found to be 130.0 ± 3.9 b mmHg; in series [2] (setting [20]), 161.0 ± 2.4 mmHg. Further, the “Diastolic blood pressure: general differences among groups: p vs Vehicle” value in series [3] (setting [21]) is recorded as “p < 0.01”. Besides, the “Heart rate: general differences among groups: p vs Vehicle” value in series [3] (setting [21]) was “ns”. The “Systolic blood pressure: general differences among groups: p vs Vehicle” value in series [3] (setting [21]) is “ns”. Besides, the “effect on heart rate (in words)” value in series [3] (lercanidipine 10 μg/kg, valsartan 30 μg/kg i.v., alone or together) is listed as “no statistically significant modification on heart rate”. Besides, the “time of statistically significant decrease in diastolic blood pressure after administration” value in series [3] (within treatment vs […], lercanidipine 10 μg/kg or valsartan 30 μg/kg i.v.) was in the range of 5 to 55 min.
